From patent US20250313564A1, “ACIDIC SALT OR CRYSTAL FORM OF NITROGEN-CONTAINING FUSED RING DERIVATIVE INHIBITOR, AND PREPARATION METHOD THEREFOR AND USE THEREOF” (SHANGHAI HANSOH BIOMEDICAL CO., LTD., priority 2022, published 2025)

Tests used:
[1] = tested on: luteinizing hormone (LH) in plasma of bilaterally ovariectomized (OVX) rats; assay: Effect on luteinizing hormone (LH) content in plasma of bilaterally ovariectomized (OVX) rats; type: in vivo; details: oral 30 mg/kg, plasma LH 0-8 h
Text: The purpose of this test example is to measure the effect of compounds on luteinizing hormone (LH) in plasma of bilaterally ovariectomized (OVX) rats.
• CMCNa (30036365, Sinopharm Chemical Reagent Co., Ltd.); • Tween 80 (30189828, Sinopharm Chemical Reagent Co., Ltd.); • Rat LH ELISA Kit (S-type) purchased from Shibayagi Japan, with catalog number of AKRLH-010S, comprising Assay buffer C, Sample dilution buffer G, Washing buffer, biotinylated anti-LHα antibody, HRP-conjugated streptavidin and Chromogen (TMB).
Bilaterally ovariectomized SD rats, aged 10 weeks, female, purchased from Beijing Vital River Laboratory Animal Technology Co., Ltd. The animals were kept in SPF-grade animal room, with 5 SD rats/cage. […]
Sample detection: All reagents, samples and ELISA plates were transferred to room temperature 20° C.-25° C. and equilibrated for at least 30 min, and dissolution, vortex and centrifugation were performed for later use. […] The OD value of each well was read using the microplate reader at a wavelength of 450 nm.
Graphpad was used to draw a standard curve, and sample concentrations were calculated. If the dilution was performed during the sample detection, the calculated sample concentration needed to be multiplied by the corresponding dilution ratio in the final calculation, which was the actual concentration of the sample.

[2] = Hygroscopicity of sample of crystal form A; type: physicochemical
Procedure: The free base crystal form A of compound 3 was placed in saturated water vapor at different relative humidities to allow the compound to reach a dynamic equilibrium with the water vapor, and the percentage of weight gain after moisture absorption of the compound after equilibrium was calculated.

[3] = Stability of sample of crystal form A (illumination, high temperature, high humidity); type: physicochemical
Procedure: The free base crystal form A of compound 3 of the present invention was taken to prepare a sample, the sample was placed under the conditions of illumination 5000 lx, high temperature 60° C., high humidity 92.5% RH, and high temperature and high humidity 50° C. 75% RH, the 5-day stability and 10-day stability were investigated, a HPLC external standard method was used to determine the content, and a chromatographic peak area normalization method was used to calculate the change in related substances.

[4] = high humidity 92.5% RH, 10 days
[5] = high temperature 60° C., 5 days
[6] = high temperature 60° C., 10 days
[7] = high temperature and high humidity 50° C. 75% RH, 5 days
[8] = high temperature and high humidity 50° C. 75% RH, 10 days

## [2H]c1cc(C(=O)N2CCn3c(-c4nc(Cl)ns4)nnc3[C@H]2C)ccc1F [Compound 3, (R)-(3-(3-chloro-1,2,4-thiadiazol-5-yl)-8-methyl-5,6-dihydro-[1,2,4]triazolo[4,3-a]pyrazin-7(8H)-yl)(4-fluorophenyl-3-d)methanone]
[1]
  ΣAUC (ΔLH/LH · h, Mean ± SD): −5.44 ± 3.02 ΔLH/LH · h

## [2H]c1cc(C(=O)N2CCn3c(-c4nc(Cl)ns4)nnc3[C@H]2C)ccc1F [free base crystal form A, (R)-(3-(3-chloro-1,2,4-thiadiazol-5-yl)-8-methyl-5,6-dihydro-[1,2,4]triazolo[4,3-a]pyrazin-7(8H)-yl)(4-fluorophenyl-3-d)methanone]
[2]; 2 cycles, 0-95% relative humidity
  crystal form change (XRPD) after moisture absorption and desorption: no crystal form transformation
[2]; RH 80%
  hygroscopicity (in words): weak hygroscopicity
  weight gain after moisture absorption: about 0.2720%
[3]; high humidity 92.5% RH, 5 days
  % Increase in total impurity: <0.02%
  % Maximum increase in single impurity: 0.06%
[3]; [4]
  % Increase in total impurity: <0.02%
  % Maximum increase in single impurity: 0.07%
[3]; [5]
  % Increase in total impurity: 0.12%
  % Maximum increase in single impurity: 0.07%
[3]; [6]
  % Increase in total impurity: <0.02%
  % Maximum increase in single impurity: 0.07%
[3]; [7]
  % Increase in total impurity: <0.02%
  % Maximum increase in single impurity: 0.03%
[3]; [8]
  % Increase in total impurity: <0.02%
  % Maximum increase in single impurity: <0.02%
[3]; illumination 5000 lx, 5 days
  % Increase in total impurity: <0.02%
  % Maximum increase in single impurity: 0.03%
[3]; illumination 5000 lx, 10 days
  % Increase in total impurity: <0.02%
  % Maximum increase in single impurity: 0.05%
